Measurements from patent publication US20130109655A1, “Method for mitigating of Prostaglandin E2 reducing side effects of non-steroidal anti-inflammatory drugs” (priority 2011, published 2013).
Values joined by “and” are separate entries in the source; they are usually repeats but may differ in a detail not shown here. Equal entries are not always repeated. Where two headings read alike, the source gives them in different places.

Key:
prostaglandin e2 [1] = settings: cited from earlier work; for change in serum levels of prostaglandin e2: niceritrol alone, Aspirin® added to niceritrol
prostaglandin e2 [2] = settings: cited from earlier work; for prostaglandin e2 concentration: nicotine pre-treated cells, highest NSAID concentration (log M=−4), absence of IL-18, basal 0.35 nM, digitised from published graph; for effect on nicotine-induced PGE2 production: nicotine-treated cells
prostaglandin e2 [3] = settings: cited from earlier work; for effect on nicotine-initiated prostaglandin e2 production: cells treated with 100 mcM nicotine, NSAID 0.1 to 100 mcM; for prostaglandin e2 concentration: nicotine (100 mcM) pre-treated cells, highest NSAID concentration (log M=−4), absence of IL-18, basal 337 pM, digitised from published graph
[4] = test system: prostaglandin e2 like substance (PGe2-LS); settings: cited from earlier work; for PGe2-LS release (M±SE): samples treated with indomethacin and the pyridine derivative, control group 0.54±0.06, n=5
prostaglandin e2 [5] = test: serum prostaglandin e2 levels in normal male volunteers after niceritrol and Aspirin® (Nozaki et al. 1987); format: in vivo, human; settings: after administration of niceritrol and Aspirin®; basal 23.3±11.8 pg/ml
Description: FIG. 3. is prostaglandin e2 section extracted by inventors from graph of FIG. 1. from publication “Increased compliance of niceritrol treatment by addition of Aspirin®: relationship between changes in prostaglandins and skin flushing.” (Nozaki, S. et al., 1987, Int J Clin Pharmacol Ther Toxicol, v 25, p: 643-7). Inventors marked on said figure extracted by inventors by using UN-SCAN-IT® basal (52.3, 33.6, 26.6, 21.2, 19.1, 18.1, 16.8, 16.0, 15.1, 13.9), and after niceritrol and Aspirin® administration (46.2, 16.6, 42.0, 44.1, 8.2, 11.4, 18.6, 9.9, 27.6, 6.2) concentration coordinates (pg/ml) of prostaglandin e2. […]
Inventors used UN-SCAN-IT® to obtain digital concentration data from prostaglandin e2 section of the graph from the FIG. 1. of the publication (FIG. 3.). The obtained by inventors serum basal (52.3, 33.6, 26.6, 21.2, 19.1, 18.1, 16.8, 16.0, 15.1, 13.9), and after niceritrol and Aspirin® administration (46.2, 16.6, 42.0, 44.1, 8.2, 11.4, 18.6, 9.9, 27.6, 6.2) prostaglandin e2 digital levels (pg/ml) were statistically analysed using paired t-test.

[6] = test system: radioimmunoassayed prostaglandin E (R-PGE); settings: basal 21±10 pg/ml, cited from earlier work
[7] = test system: radioimmunoassayed prostaglandin E (R-PGE); settings: naproxen and nicotinic acid, basal 35.6±29.8, cited from earlier work

Question: Which “change in serum levels of prostaglandin e2” value (prostaglandin e2 [1]) does the source give for CC(=O)Oc1ccccc1C(=O)O [Aspirin®] here?
Answer: significantly decreased

Question: With CS(=O)(=O)Nc1ccc([N+](=O)[O-])cc1OC1CCCCC1 [NS398] as the compound, how does the “prostaglandin e2 concentration” value (prostaglandin e2 [2]) read?
Answer: 0.55 nM

Question: And the “effect on nicotine-induced PGE2 production” value (prostaglandin e2 [2])?
Answer: inhibited

Question: What about the “effect on nicotine-initiated prostaglandin e2 production” value (prostaglandin e2 [3]) of the same compound?
Answer: suppressed

Question: What about the “prostaglandin e2 concentration” value (prostaglandin e2 [3]) of the same compound?
Answer: 761 pM

Question: Which “prostaglandin e2 concentration” value (prostaglandin e2 [2]) does the source give for COc1ccc2c(c1)c(CC(=O)O)c(C)n2C(=O)c1ccc(Cl)cc1 [indomethacin] here?
Answer: 0.50 nM

Question: What about the “effect on nicotine-induced PGE2 production” value (prostaglandin e2 [2]) of the same compound?
Answer: inhibited

Question: And the “effect on PGe2-LS release stimulated by pyridine derivatives” value ([4]; indomethacin treatment)?
Answer: reduced

Question: What about the “effect on nicotine-initiated prostaglandin e2 production” value (prostaglandin e2 [3]) of the same compound?
Answer: suppressed

Question: What about the “prostaglandin e2 concentration” value (prostaglandin e2 [3]) of the same compound?
Answer: 768 pM

Question: Which results are given for O=C(OCC(COC(=O)c1cccnc1)(COC(=O)c1cccnc1)COC(=O)c1cccnc1)c1cccnc1 [niceritrol]?
Answer: mean (M±SD) serum prostaglandin e2 concentration (prostaglandin e2 [5]): 23.1 ± 15.8 pg/mL; serum prostaglandin e2 level, individual volunteers (prostaglandin e2 [1]; after niceritrol and Aspirin® administration, 10 normal male volunteers, digitised from published graph): 46.2 pg/mL and 6.2 pg/mL and 16.6 pg/mL and 42.0 pg/mL and 44.1 pg/mL and 8.2 pg/mL and 11.4 pg/mL and 18.6 pg/mL and 9.9 pg/mL and 27.6 pg/mL; change in serum levels of prostaglandin e2 (prostaglandin e2 [1]): significantly increased

Question: With O=C(O)c1cccnc1 [nicotinic acid] as the compound, how does the “plasma concentration of R-PGE (M±SE)” value ([6]; infusion of nicotinic acid) read?
Answer: 49 ± 7 pg/mL

Question: And the “plasma concentration of R-PGE (M±SE)” value ([6]; nicotinic acid infusion after naproxen treatment, n=3)?
Answer: 8 ± 2 pg/mL

Question: What about the “PGe2-LS release (M±SE)” value [4] of the same compound?
Answer: 0.63 ± 0.03 ng/min

Question: What about the “actual release of R-PGE (M±SE)” value ([7]; 5 min) of the same compound?
Answer: 8.2±13.8 pg/100 ml tissue×min

Question: And the “actual release of R-PGE (M±SE)” value ([7]; 10 min)?
Answer: 10.6±16.6 pg/100 ml tissue×min

Question: What about the “actual release of R-PGE (M±SE)” value ([7]; 20 min) of the same compound?
Answer: 18.8±16.2 pg/100 ml tissue×min

Question: And the “actual release of R-PGE (M±SE)” value ([7]; 60 min)?
Answer: 15.1±13 pg/100 ml tissue×min

Question: With OCc1cccnc1 [nicotinyl alcohol] as the compound, how does the “PGe2-LS release (M±SE)” value [4] read?
Answer: 0.52 ± 0.06 ng/min

Question: With CN(C)C(=O)Oc1ccc[n+](C)c1 [pyridostigmine bromide] as the compound, how does the “PGe2-LS release (M±SE)” value [4] read?
Answer: 0.50 ± 0.06 ng/min

Question: With Cc1ncc(CO)c(CO)c1O.Cl [pyridoxine hydrochloride] as the compound, how does the “PGe2-LS release (M±SE)” value [4] read?
Answer: 0.44 ± 0.02 ng/min
